Counter-ions that a name gives are not always drawn.
Tests used:
[1] = target: PTPN11-E76K mutant enzyme (Homo sapiens (Human), UniProt Q06124, E76K); experiment: PTPN11 Enzymatic Assay (DiFMUP phosphatase activity); type: biochemical; conditions: full length PTPN11-E76K mutant enzyme 250 pM, DiFMUP 50 μM, 30 min preincubation; read-out: PTPN11-E76K Avg IC50
Method: Reaction was initiated by addition of DiFMUP (50 μM) at room temperature in 384-well black plate with a final reaction volume of 20 uL in assay buffer. […] Dose-response curves were analyzed using IC50 regression curve fitting (GeneData Screener). Curves were normalized to a high controls without inhibitor, and low controls without enzyme.

[2] = test system: Phospho-ERK levels in KYSE-520 cells; experiment: ERK Phosphorylation (Phospho-ERK) Target Engagement Assay (HTRF); type: cell-based; conditions: Homo sapiens, 2 hr compound incubation, phospho-ERK1/2 HTRF kit, read-out: pERK target engagement assay Avg IC50
Method: KYSE-520 cells (10 k cells/well) are plated onto 384-well plate in 20 uL of medium (RPMI-1640, without phenol red, containing 10% FBS) and incubated at 37° C., 5% CO2 16 h. DMSO (control) or increasing concentrations of compounds are diluted in medium, added to the 384-well plate (10 uL/well, final DMSO concentration of 0.5-1%), and cells are then incubated with compounds for 2 hr. Phospho-ERK levels are measured using a TR-FRET based phospho-ERK1/2 HTRF kit (CisBio, 64ERKPEH) following manufacturer's recommendations, and fluorescence signal was measured at 665 nm and 620 nm using Synergy Neo plate reader. Dose-response curves were analyzed using IC50 regression curve fitting (GeneData Screener). Curves were normalized to a high controls without inhibitor, and low controls with 1 μM of selumetinib.

[3] = test system: BT474 human breast carcinomas cell line; experiment: In Vivo Tumor Models: BT474 xenograft; conditions: BT474 (HER2+) xenograft in mouse, 100 mg/kg once per day oral gavage, 5 days on/2 days off, 4 weeks
From the text: Xenografts were initiated with BT474 human breast carcinomas cell line and maintained by serial subcutaneous transplantation in CB-17/SCID mice (Charles River). On the day of tumor implant, each test mouse received a 1 mm^3 BT474 fragment implanted subcutaneously in the right flank, and tumor growth was monitored as the average size approached the target range of 100 to 150 mm3. About three weeks post-implantation, the animals were randomized and grouped based on tumor volume and mouse body weight. […] Tumors were measured in two dimensions using calipers, and volume was calculated using the formula: Tumor Volume (mm^3)=[…].
Results are found in FIGS. 1 and 2.

[4] = test system: Phospho-ERK levels in KYSE-520 cells; experiment: pERK AlphaScreen Protocol; type: cell-based; conditions: Homo sapiens, KYSE-520, 2 h, read-out: PERK Avg IC50
Procedure, shortened: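 After overnight growth at 10 k cells/well in RPMI-1640 with 10% FBS, KYSE-520 cells received compound dilutions for 2 h at 1% final DMSO.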

[5] = KYSE-520 cells, 2 hr compound incubation, phospho-ERK1/2 AlphaScreen SureFire

Sequence of PTPN11-E76K mutant enzyme (Q06124 whole entry E76K): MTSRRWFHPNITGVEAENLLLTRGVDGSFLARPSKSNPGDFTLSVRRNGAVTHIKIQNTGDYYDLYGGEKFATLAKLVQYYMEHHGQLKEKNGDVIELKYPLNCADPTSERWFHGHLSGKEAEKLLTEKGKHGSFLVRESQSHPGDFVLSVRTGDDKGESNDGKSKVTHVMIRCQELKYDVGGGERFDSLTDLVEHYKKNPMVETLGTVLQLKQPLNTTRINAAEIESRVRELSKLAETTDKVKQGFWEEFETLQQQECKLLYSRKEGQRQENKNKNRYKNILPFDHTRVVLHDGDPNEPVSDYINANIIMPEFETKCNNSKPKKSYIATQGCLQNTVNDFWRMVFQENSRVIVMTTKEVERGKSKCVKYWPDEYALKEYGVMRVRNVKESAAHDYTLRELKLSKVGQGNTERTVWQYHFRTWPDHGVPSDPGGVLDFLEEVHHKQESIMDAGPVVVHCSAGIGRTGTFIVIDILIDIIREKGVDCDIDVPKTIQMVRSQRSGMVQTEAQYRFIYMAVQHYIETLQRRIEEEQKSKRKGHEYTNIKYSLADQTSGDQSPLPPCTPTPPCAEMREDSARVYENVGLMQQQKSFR

Row | Structure (SMILES) | IC50 [1] | IC50 [4, 5] | further results
1 | Clc1cccc(-c2n[nH]c3nc(N4CCC5(CCNC5)CC4)cnc23)c1Cl [Example 2, 8-(3-(2,3-dichloro-phenyl)-1H-pyrazolo[3,4-b]-pyrazin-6-yl)-2,8-diazaspiro-[4.5]decane] | 787 nM |  | IC50 [2]: 169 nM
2 | N[C@@H]1[C@H]2CN(c3cnc4c(-c5cccc(Cl)c5Cl)n[nH]c4n3)C[C@@H]12 [Example 3, (1R,5S,6S)-3-(3-(2,3-dichlorophenyl)-1H-pyrazolo[3,4-b]-pyrazin-6-yl)-3-aza-bicyclo[3.1.0]hexan-6-amine] | 1070 nM |  | IC50 [2]: 322 nM
3 | CNC1(C)CCN(c2cnc3c(-c4cccc(Cl)c4Cl)n[nH]c3n2)CC1 [Example 6, 1-(3-(2,3-Dichlorophenyl)-1H-pyrazolo[3,4-b]-pyrazin-6-yl)-N,4-dimethylpiperidin-4-amine] | 2 nM |  | IC50 [2]: 124 nM
4 | CC1(CN)CCN(c2cnc3c(-c4cccc(Cl)c4Cl)n[nH]c3n2)CC1 [Example 4, (1-(3-(2,3-dichloro-phenyl)-1H-pyrazolo[3,4-b]-pyrazin-6-yl)-4-methylpiperidin-4-yl)methanamine] |  |  | IC50 [2]: 73 nM
5 | CC1(N)CCN(c2cnc3c(-c4cccc(Cl)c4Cl)n[nH]c3n2)CC1 [Example 1, 1-(3-(2,3-dichlorophenyl)-1H-pyrazolo[3,4-b]pyrazin-6-yl)-4-methylpiperidin-4-amine] |  |  | IC50 [2]: 49 nM; suppression of tumor growth [3]: significant suppression of tumor growth; tolerability of dose [3]: tolerated
6 | CC1(N)CCN(c2cnc3c(-c4ccccc4Cl)n[nH]c3n2)CC1 [Example 20, 1-(3-(2-Chlorophenyl)-1H-pyrazolo[3,4-b]pyrazin-6-yl)-4-methylpiperidin-4-amine] | 326 nM | 158 nM | 
7 | Nc1nccc(-c2n[nH]c3nc(N4CCC5(CCC[C@H]5N)CC4)cnc23)c1Cl [Example 130, (1R)-8-[3-(2-amino-3-chloropyridin-4-yl)-1H-pyrazolo[3,4-b]pyrazin-6-yl]-8-azaspiro[4.5]decan-1-amine] | 83 nM | 65 nM | 
8 | CC1(N)CCN(c2cnc3c(-c4cccc(C(F)(F)F)c4)n[nH]c3n2)CC1 [Example 21, 4-Methyl-1-(3-(3-(trifluoromethyl)phenyl)-1H-pyrazolo[3,4-b]pyrazin-6-yl)piperidin-4-amine] | 956 nM | 620 nM | 
9 | Nc1cc(-c2n[nH]c3nc(N4CCC5(CC4)COC[C@H]5N)cnc23)c(Cl)cn1 [Example 137, (4S)-8-[3-(2-amino-5-chloropyridin-4-yl)-1H-pyrazolo[3,4-b]pyrazin-6-yl]-2-oxa-8-azaspiro[4.5]-decan-4-amine] | 504 nM | 1030 nM | 
10 | NCC1(O)CCN(c2cnc3c(-c4cc(N)ncc4Cl)n[nH]c3n2)CC1 [Example 134, 1-[3-(2-amino-5-chloropyridin-4-yl)-1H-pyrazolo[3,4-b]-pyrazin-6-yl]-4-(aminomethyl)-piperidin-4-ol] | 1530 nM | 2010 nM | 
11 | NCC1(O)CCN(c2cnc3c(-c4ccccc4Cl)n[nH]c3n2)CC1 [Example 60, 4-(aminomethyl)-1-(3-(2-chlorophenyl)-1H-pyrazolo[3,4-b]-pyrazin-6-yl)-piperidin-4-ol] | 918 nM | 317 nM | 
12 | N[C@@H]1CCCC12CCN(c1cnc3c(-c4ccnc(O)c4Cl)n[nH]c3n1)CC2 [Example 108, (R)-4-(6-(1-Amino-8-azaspiro[4.5]decan-8-yl)-1H-pyrazolo[3,4-b]pyrazin-3-yl)-3-chloropyridin-2-ol trifluoroacetate] | 726 nM |  | IC50 [4]: 6800 nM
13 | CC1(CN)CCN(c2cnc3c(-c4cccc(Cl)c4F)n[nH]c3n2)CC1 [Example 25, (1-(3-(3-Chloro-2-fluorophenyl)-1H-pyrazolo[3,4-b]pyrazin-6-yl)-4-methylpiperidin-4-yl)-methanamine] | 101 nM | 47 nM | 
14 | NCC1(O)CCN(c2cnc3c(-c4ccnc(N)c4Cl)n[nH]c3n2)CC1 [Example 114, 1-(3-(2-Amino-3-chloropyridin-4-yl)-1H-pyrazolo[3,4-b]pyrazin-6-yl)-4-(aminomethyl)piperidin-4-ol] | 779 nM | 2490 nM | 
15 | NCC1(O)CCN(c2cnc3c(-c4cccc(Cl)c4Cl)n[nH]c3n2)CC1 [Example 8, 4-(aminomethyl)-1-(3-(2,3-dichloro-phenyl)-1H-pyrazolo[3,4-b]-pyrazin-6-yl)-piperidin-4-ol] | 204 nM | 86 nM | 
16 | COc1cc(Cl)cc(-c2n[nH]c3nc(N4CCC(C)(CN)CC4)cnc23)c1 [Example 35, (1-(3-(3-chloro-5-methoxyphenyl)-1H-pyrazolo[3,4-b]-pyrazin-6-yl)-4-methylpiperidin-4-yl) methanamine] | 304 nM | 704 nM | 
17 | CC1(CN)CCN(c2cnc3c(-c4cccnc4Cl)n[nH]c3n2)CC1 [Example 36, (1-(3-(2-chloro-pyridin-3-yl)-1H-pyrazolo[3,4-b]-pyrazin-6-yl)-4-methylpiperidin-4-yl) methanamine] | 967 nM | 320 nM | 
18 | N[C@@H]1CCCC12CCN(c1cnc3c(-c4ccc(F)c(Cl)c4)n[nH]c3n1)CC2 [Example 47, (R)-8-(3-(3-chloro-4-fluorophenyl)-1H-pyrazolo[3,4-b]-pyrazin-6-yl)-8-aza-spiro[4.5]decan-1-amine] | 493 nM | 343 nM | 
19 | CNc1nccc(-c2n[nH]c3nc(N4CCC(C)(CN)CC4)cnc23)c1Cl [Example 104, 4-(6-(4-(Aminomethyl)-4-methylpiperidin-1-yl)-1H-pyrazolo[3,4-b]pyrazin-3-yl)-3-chloro-N-methylpyridin-2-amine] | 99 nM | 47 nM | 
20 | CC1(N)CCN(c2cnc3c(-c4cc(N)ncc4Cl)n[nH]c3n2)CC1 [Example 138, 4-[6-(4-amino-4-methylpiperidin-1-yl)-1H-pyrazolo[3,4-b]pyrazin-3-yl]-5-chloropyridin-2-amine] | 587 nM | 406 nM | 
21 | CC1(CN)CCN(c2cnc3c(-c4ccnc(N)c4Cl)n[nH]c3n2)CC1 [Example 107, 4-(6-(4-(Aminomethyl)-4-methylpiperidin-1-yl)-1H-pyrazolo[3,4-b]pyrazin-3-yl)-3-chloropyridin-2-amine] | 162 nM | 246 nM | 
22 | NC1(CF)CCN(c2cnc3c(-c4cccc(Cl)c4Cl)n[nH]c3n2)CC1 [Example 58, 1-(3-(2,3-dichlo-rophenyl)-1H-pyrazolo[3,4-b]-pyrazin-6-yl)-4-(fluoromethyl)-piperidin-4-amine] | 338 nM | 109 nM | 
23 | Cc1ncccc1-c1n[nH]c2nc(N3CCC4(CCC[C@H]4N)CC3)cnc12 [Example 55, (R)-8-(3-(2-methyl-pyridin-3-yl)-1H-pyrazolo[3,4-b]-pyrazin-6-yl)-8-azaspiro[4.5]decan-I -amine] | 1140 nM | 712 nM | 
24 | CC1(CN)CCN(c2cnc3c(-c4cc(Cl)cc(Cl)c4)n[nH]c3n2)CC1 [Example 11, (1-(3-(3,5-dichloro-phenyl)-1H-pyrazolo[3,4-b]-pyrazin-6-yl)-4-methylpiperidin-4-yl) methanamine] | 632 nM | 1170 nM | 

— patent US10280171B2, “Heterocyclic inhibitors of PTPN11” (priority 2016, dated 2019)
